According to ChEMBL document CHEMBL5236616, “Chlorinated Naringenin Analogues as Potential Inhibitors of Transthyretin Amyloidogenesis” (J Med Chem, 2022):
Converted amounts (≈) assume the structure as drawn. The source made the active and inactive calls. The rule behind the calls is not given here.

Legend:
[1] = system: Transthyretin (Homo sapiens), P02766 [V50M]; experiment: Inhibition of acid mediated TTR V30M mutant aggregation (unknown origin) expressed in Escherichia coli preincubated for 30 mins followed by acid stimulation and measured after 96 hrs by fluorescence spectrophotometer analysis; settings: time 96.5 hrs
[2] = system: Transthyretin (Homo sapiens), P02766 [V50M]; experiment: Binding affinity to TTR V30M mutant (unknown origin) expressed in Escherichia coli assessed as gibbs free energy change by ITC assay
[3] = molecular target: Transthyretin (Homo sapiens) (UniProt P02766); experiment: Displacement of (E)-S-phenyl 3(4-hydroxy-3,5-dimethylstyryl)benzothioate from human plasma TTR at 20 uM incubated for 6 hrs by fluorescence based assay; assay type: cell-free
Transthyretin = Transthyretin (Homo sapiens, UniProt P02766, V50M); experiment: Binding affinity to TTR V30M mutant (unknown origin) expressed in Escherichia coli by ITC assay
[4] = system: Transthyretin (Homo sapiens), P02766 [V50M]; experiment: Binding affinity to TTR V30M mutant (unknown origin) expressed in Escherichia coli assessed as change in entropy by ITC assay
[5] = system: Transthyretin (Homo sapiens), P02766 [V50M]; experiment: Binding affinity to TTR V30M mutant (unknown origin) expressed in Escherichia coli assessed as change in enthalpy by ITC assay
[6] = Drug concentration in rat plasma at 1.82 mg/kg, po; assay type: ADME, organism-based; settings: in vivo
[7] = Ratio of drug concentration in Sprague-Dawley rat brain to plasma at 1 mg/kg, iv after 8 hrs by LC-MS/MS analysis; assay type: ADME, organism-based
[8] = Drug concentration in Sprague-Dawley rat brain at 1 mg/kg, iv after 8 hrs by LC-MS/MS anlaysis; assay type: ADME, organism-based; settings: read-out: Ct
[9] = Ratio of drug concentration in Sprague-Dawley rat eye ball to plasma at 1 mg/kg, iv after 8 hrs by LC-MS/MS analysis; assay type: ADME, organism-based
[10] = Aqueous solubility of compound at pH 6.8 incubated for 4 hrs; assay type: physicochemical; settings: aqueous medium
[11] = Permeability of compound at 10 uM after 4 hrs by LC-MS/MS based PAMPA; assay type: ADME; settings: read-out: permeability
[12] = Drug concentration in Sprague-Dawley rat plasma at 1 mg/kg, iv after 8 hrs by LC-MS/MS anlaysis; assay type: ADME, organism-based
[13] = Plasma protein binding in rat assessed as unbound fraction at 1 uM incubated for 4 hrs by rapid equilibrium dialysis method; assay type: ADME, cell-free
[14] = Drug concentration in Sprague-Dawley rat eye ball at 1 mg/kg, po after 8 hrs by LC-MS/MS anlaysis; assay type: ADME, organism-based, Eyeball of camera-type eye; settings: read-out: Ct
[15] = Aqueous solubility of compound at pH 1.2 incubated for 4 hrs; assay type: physicochemical; settings: aqueous medium
[16] = Drug concentration in Sprague-Dawley rat plasma at 1 mg/kg, po after 8 hrs by LC-MS/MS anlaysis; assay type: ADME, organism-based
[17] = Ratio of drug concentration in Sprague-Dawley rat eye ball to plasma at 1 mg/kg, po after 8 hrs by LC-MS/MS analysis; assay type: ADME, organism-based
[18] = Drug concentration in Sprague-Dawley rat eye ball at 1 mg/kg, iv after 8 hrs by LC-MS/MS anlaysis; assay type: ADME, organism-based, Eyeball of camera-type eye; settings: read-out: Ct
[19] = Ratio of drug concentration in Sprague-Dawley rat brain to plasma at 1 mg/kg, po after 8 hrs by LC-MS/MS analysis; assay type: ADME, organism-based
[20] = Drug concentration in Sprague-Dawley rat brain at 1 mg/kg, po after 8 hrs by LC-MS/MS anlaysis; assay type: ADME, organism-based; settings: read-out: Ct

Row | Structure (SMILES) | IC50 [1] | deltaG [2] | Activity [3] | Kd (Transthyretin) | TdeltaS [4] | deltaH [5] | other results
1 | O=C1CC(c2ccc(O)c(Cl)c2)Oc2ccc(O)cc21 (stereo not given) | 5.9 µM | – | – | – | – | – | –
2 | O=C1CC(c2cc(Cl)c(O)c(Cl)c2)Oc2cc(O)ccc21 (stereo not given) | 4.6 µM | -10.4 kcal/mol | Active | 0.026 µM | 2.78 kcal/mol | -13.2 kcal/mol | –
3 | O=C1CC(c2ccc(Cl)cc2)Oc2cc(O)cc(O)c21 (stereo not given) | 15 µM | – | – | – | – | – | –
4 | O=C1CC(c2cc(Cl)c(O)c(Cl)c2)Oc2cccc(O)c21 (stereo not given) | 3.6 µM | -10.9 kcal/mol | Active | 0.013 µM | -2.28 kcal/mol | -8.61 kcal/mol | –
5 | O=C1CC(c2ccc(O)c(Cl)c2)Oc2cccc(O)c21 (stereo not given) | 7.2 µM | – | – | – | – | – | –
6 | O=C1CC(c2ccc(O)c(Cl)c2)Oc2cc(O)ccc21 (stereo not given) | 6 µM | – | – | – | – | – | –
7 | O=C1C[C@@H](c2ccc(O)cc2)Oc2cc(O)cc(O)c21 [NARINGENIN] | 12 µM | -7.9 kcal/mol | – | 1.63 µM | 1.32 kcal/mol | -10.9 kcal/mol | concentration [6]: 1500 nM
8 | O=C1CC(c2ccc(O)c(Cl)c2)Oc2cc(O)cc(O)c21 (stereo not given) | 5.3 µM | -8.73 kcal/mol | Active | 0.403 µM | 4.47 kcal/mol | -13.2 kcal/mol | –
9 | O=C1CC(c2cc(Cl)c(O)c(Cl)c2)Oc2ccc(O)cc21 (stereo not given) | 4.3 µM | – | – | – | – | – | –
10 | O=C1CC(c2cc(Cl)cc(Cl)c2)Oc2cc(O)cc(O)c21 (stereo not given) | 3.8 µM | -13.6 kcal/mol | Active | 0.006 µM | -6.17 kcal/mol | -7.42 kcal/mol | –
11 | O=C1CC(c2cc(Cl)c(O)c(Cl)c2)Oc2cc(O)cc(O)c21 (stereo not given) | 3.7 µM | -10.7 kcal/mol | Active | 0.016 µM | 6 kcal/mol | -16.7 kcal/mol | Kp at 8 h [7]: 0.074; concentration at 8 h [8]: 53.1 nM; Kp at 8 h [9]: 0.209; solubility at 4 h [10]: 28.3 µM (≈ 9.65 µg/mL); Papp at 4 h, 10 µM [11]: > 50 ×10⁻⁶ cm/s; concentration at 8 h [12]: 717 nM; Fu [13]: 0.081%; concentration at 8 h [14]: 37.1 nM; solubility at 4 h [15]: 0.66 µM (≈ 0.225 µg/mL); concentration at 8 h [16]: 267 nM; Kp at 8 h [17]: 0.139; concentration at 8 h [18]: 150 nM; Kp at 8 h [19]: 0.058; concentration at 8 h [20]: 15.6 nM
